Data taken from ChEMBL document CHEMBL4480413, “Cytotoxic Withanolides from the Roots of Indian Ginseng ( Withania somnifera)” (J Nat Prod, 2019).

Key:
Format in all cases: functional, cell-based
SK-OV-3 = test: Cytotoxicity against human SKOV3 cells after 72 hrs by SRB assay
A549 = test: Cytotoxicity against human A549 cells after 72 hrs by SRB assay
SK-MEL-2 = test: Cytotoxicity against human SK-MEL-2 cells after 72 hrs by SRB assay
HCT-15 = test: Cytotoxicity against human HCT15 cells after 72 hrs by SRB assay
[1] = Homo sapiens, SK-OV-3, 72 h, read-out: IC50
[2] = Homo sapiens, A549, 72 h, read-out: IC50
[3] = Homo sapiens, SK-MEL-2, 72 h, read-out: IC50
[4] = Homo sapiens, HCT-15, 72 h, read-out: IC50

Row | SMILES | IC50 (SK-OV-3; [1]) [µM] | IC50 (A549; [2]) [µM] | IC50 (SK-MEL-2; [3]) [µM] | IC50 (HCT-15; [4]) [µM] | IC50 (SK-OV-3; sk-ov-3) | IC50 (A549; a549) | IC50 (SK-MEL-2; sk-mel-2) | IC50 (HCT-15; hct-15)
1 | CC1=C(C)C(=O)O[C@@H]([C@](C)(O)[C@H]2CC[C@H]3[C@@H]4[C@H](O)C=C5CC=CC(=O)[C@]5(C)[C@H]4CC[C@]23C)C1 | 7.9 | > 10 | 3.4 | 5.1 | – | – | – | –
2 | CC1=C(C)C(=O)O[C@@H]([C@@H](C)[C@]2(O)CC[C@H]3[C@@H]4[C@@H]5O[C@@H]5[C@@]5(O)CC=CC(=O)[C@]5(C)[C@H]4CC[C@@]32C)C1 | – | – | – | – | Not Active | Not Active | Not Active | Not Active
3 | C[C@H]1C[C@H]([C@](C)(O)[C@H]2CC[C@H]3[C@@H]4[C@@H]5O[C@@H]5[C@@]5(O)CC=CC(=O)[C@]5(C)[C@H]4CC[C@]23C)OC(=O)[C@@H]1C | – | – | – | – | Not Active | Not Active | Not Active | Not Active
4 | CC1=C(C)C(=O)O[C@@H]([C@@H](C)[C@@]2(O)CC[C@H]3[C@@H]4[C@@H]5O[C@@H]5[C@@]5(O)CC=CC(=O)[C@]5(C)[C@H]4CC[C@@]32C)C1 [WITHANONE] | > 10 | > 10 | 6.1 | 5.9 | – | – | – | –
5 | CC1=C(C)[C@H](O)[C@H]([C@](C)(O)[C@H]2CC[C@H]3[C@@H]4[C@@H]5O[C@@H]5[C@@]5(O)CC=CC(=O)[C@]5(C)[C@H]4CC[C@]23C)OC1=O | > 10 | > 10 | 9.2 | 9.8 | – | – | – | –
6 | C[C@H]([C@H]1C[C@H](C)[C@@H](C)C(=O)O1)[C@@]1(O)CC[C@H]2[C@@H]3[C@@H]4O[C@@H]4[C@@]4(O)CC=CC(=O)[C@]4(C)[C@H]3CC[C@@]21C | – | – | – | – | Not Active | Not Active | Not Active | Not Active
7 | CC1=C(CO)C(=O)O[C@@H](/C(C)=C2\[C@H](O)C[C@H]3[C@@H]4[C@@H]5O[C@@H]5[C@@]5(O)CC=CC(=O)[C@]5(C)[C@H]4CC[C@]23C)C1 | – | – | – | – | Not Active | Not Active | Not Active | Not Active
8 | COc1cc([C@@H]2c3cc4c(cc3[C@@H](O[C@@H]3O[C@@H]5CO[C@@H](C)O[C@H]5[C@H](O)[C@H]3O)[C@H]3COC(=O)[C@H]23)OCO4)cc(OC)c1O [ETOPOSIDE] | 1.83 | 0.71 | 0.79 | 0.46 | – | – | – | –
9 | C[C@H]1C[C@H]([C@](C)(O)[C@H]2CC[C@H]3[C@@H]4[C@H](O)C=C5CC=CC(=O)[C@]5(C)[C@H]4CC[C@]23C)OC(=O)[C@@H]1C | 8.8 | > 10 | 5.9 | 5.7 | – | – | – | –
10 | CC(=O)O[C@@H]1C[C@H]2[C@@H]3[C@@H]4O[C@@H]4[C@@]4(O)CC=CC(=O)[C@]4(C)[C@H]3CC[C@]2(C)/C1=C(\C)[C@H]1CC(C)=C(CO)C(=O)O1 | > 10 | > 10 | 10 | 7.6 | – | – | – | –
11 | CC1=C(C)C(=O)O[C@@H]([C@](C)(O)[C@@]2(O)CC[C@H]3[C@@H]4[C@@H]5O[C@@H]5[C@@]5(O)CC=CC(=O)[C@]5(C)[C@H]4CC[C@@]32C)C1 | – | – | – | – | Not Active | Not Active | Not Active | Not Active
12 | CC1=C(CO)C(=O)O[C@@H]([C@](C)(O)[C@H]2CC[C@H]3[C@@H]4[C@@H]5O[C@@H]5[C@@]5(O)CC=CC(=O)[C@]5(C)[C@H]4CC[C@]23C)C1 | – | – | – | – | Not Active | Not Active | Not Active | Not Active
13 | CC1=C(C)C(=O)O[C@@H]([C@](C)(O)[C@H]2CC[C@H]3[C@@H]4[C@@H]5O[C@@H]5[C@@]5(O)CC=CC(=O)[C@]5(C)[C@H]4CC[C@]23C)C1 [WITHANOLIDE A] | – | – | – | – | Not Active | Not Active | Not Active | Not Active
14 | CC1=C(CO)C(=O)O[C@@H]([C@@H](C)[C@@]2(O)CC[C@H]3[C@@H]4[C@@H]5O[C@@H]5[C@@]5(O)CC=CC(=O)[C@]5(C)[C@H]4CC[C@@]32C)C1 | – | – | – | – | Not Active | Not Active | Not Active | Not Active
